{
  "source": "paper PMC8720282",
  "about": "(ACS chemical biology, 2021)",
  "system": "defibrinated rabbit red blood cells",
  "assay": "Hemolysis assay",
  "assay_type": "cell-based",
  "conditions": "defibrinated rabbit RBCs, triplicate on three separate days",
  "data": [
    {"smiles": "CC(C)(C)CC(C)(C)c1ccc(OCCO)cc1", "note": "[Triton X]", "values": [
      {"measurement": "hemolysis in THY media alone", "result": "significant degree of hemolysis"}
    ]}
  ]
}
